Measurements taken from patent US9822131B2, “Certain chemical entities, compositions and methods” (Intellikine LLC, priority 2008, dated 2017).
Read-outs that look alike come from different tables or passages of the source.

How the values were obtained:
[1] = system: established type II collagen induced arthritis; assay: Rat established type II collagen induced arthritis assay; type: in vivo; settings: oral
Experimental: In order to examine the dose responsive efficacy of the compounds of the present invention in inhibiting the inflammation, cartilage destruction and bone resorption of 7 day established type II collagen induced arthritis in rats, compounds were administered orally daily or twice daily for 6 days.
Female Lewis rats were anesthetized and given collagen injections prepared and administered as described previously on day 0. On day 6, animals were anesthetized and given a second collagen injection. Caliper measurements of normal (pre-disease) right and left ankle joints were performed on day 9. On days 10-11, arthritis typically occurred and rats were randomized into treatment groups. Randomization was performed after ankle joint swelling was obviously established and there was good evidence of bilateral disease.
After an animal was selected for enrollment in the study, treatment was initiated by the oral route. Animals were given vehicle, control (Enbrel) or compound doses, twice daily or once daily (BID or QD respectively). Dosing was administered on days 1-6 using a volume of 2.5 ml/kg (BID) or 5 ml/kg (QD) for oral solutions. Rats were weighed on days 1-7 following establishment of arthritis and caliper measurements of ankles taken every day. Final body weights were taken on day 7 and animals were euthanized.

[2] = system: adjuvant induced arthritis model; assay: Adjuvant induced arthritis assay; type: in vivo
Experimental: Isoflurane-anesthetized Lewis rats (200-250 g) were implanted with an intrathecal (IT) catheter. After a 6 d recovery period, all animals except those that appeared to have sensory or motor abnormalities (fewer than 5% of the total number) were used for experiments. For IT administration, 10 μl of drug or saline followed by 10 μl of isotonic saline was injected through the catheter.
Lewis rats were immunized at the base of the tail with 0.1 ml of complete Freund's adjuvant (CFA) on day 0 several days after catheter implantation (n=6/group). Drug (e.g. one or more compounds of the present invention or vehicle) treatment was generally started on day 8 and continued daily until day 20. Clinical signs of arthritis generally begin on day 10, and paw swelling was determined every second day by water displacement plethysmometry.

[3] = system: collagen induced developing arthritis model; assay: Rat developing type II collagen induced arthritis assay; type: in vivo
Experimental: In order to study the effects of the compounds of the present invention on the autoimmune disease arthritis, a collagen induced developing arthritis model was used. Female Lewis rats were given collagen injections at day 0. Bovine type II collagen was prepared as a 4 mg/ml solution in 0.01N acetic acid. Equal volumes of collagen and Freund's incomplete adjuvant were emulsified by hand mixing until a bead of the emulsified material held its form in water. Each rodent received a 300 μl injection of the mixture at each injection time spread over three subcutaneous sites on the back.
Oral compound administration began on day 0 and continued through day 16 with vehicle (5% NMP, 85% PEG 400, 10% Solutol) or compounds of the present invention in vehicle or control (e.g. methotrexate) at 12 hour intervals daily. Rats were weighed on days 0, 3, 6, 9-17 and caliper measurements of ankles taken on days 9-17. Final body weights were taken, and then the animals were euthanized on day 17. After euthanization, blood was drawn and hind paws and knees were removed. Blood was further processed for pharmacokinetics experiments as well as an anti-type II collagen antibody ELISA assay. Hind paws were weighed and then with the knees preserved in 10% formalin. The paws and knees were subsequently processed for microcopy. Livers, spleen and thymus were also weighed. Sciatic nerves were prepared for histopathology.
Knee and ankle joints were fixed for 1-2 days and decalcified for 4-5 days. Ankle joints were cut in half longitudinally, knees were cut in half along the frontal plane. Joints were then processed, embedded, sectioned and stained with toluidine blue. Scoring of the joints was done according to the following criteria:
Percent inhibition of paw weight and AUC was calculated using the following formula: % Inhibition=A−B/A×100 A=Mean Disease Control−Mean Normal B=Mean Treated−Mean Normal

Balb/c splenic B cells = assay: B cell activation and proliferation assay (Alamar Blue); type: cell-based; settings: Mus musculus
Experimental: The assay is performed in a 96 well microtiter plate using Alamar Blue reduction. Balb/c splenic B cells are purified over a Ficoll-Paque™ PLUS gradient followed by magnetic cell separation using a MACS B cell Isolation Kit (Miletenyi). Cells are plated in 90 ul at 50,000 cells/well in B Cell Media (RPMI+10% FBS+Penn/Strep+50 uM bME+5 mM HEPES). A compound disclosed herein is diluted in B Cell Media and added in a 10 ul volume. Plates are incubated for 30 min at 37 C and 5% CO2 (0.2% DMSO final concentration). A 50 ul B cell stimulation cocktail is then added containing either 10 ug/ml LPS or 5 ug/ml F(ab′)2 Donkey anti-mouse IgM plus 2 ng/ml recombinant mouse IL4 in B Cell Media. […] A volume of 15 uL of Alamar Blue reagent is added to each well and plates are incubated for 5 hours at 37 C and 5% CO2. Alamar Blue fluoresce is read at 560Ex/590Em, and IC50 or EC50 values are calculated using GraphPad Prism 5.

basophilic granulocytes = assay: Basotest assay; type: cell-based; settings: heparinized whole blood, dust mite or grass extract allergen
Experimental: The baseotest assay is performed using Orpegen Pharma Basotest reagent kit. Heparinized whole blood is pre-incubated with test compound or solvent at 37 C for 20 min. Blood is then incubated with assay kit stimulation buffer (to prime cells for response) followed by allergen (dust mite extract or grass extract) for 20 min. The degranulation process is stopped by incubating the blood samples on ice. The cells are then labeled with anti-IgE-PE to detect basophilic granulocytes, and anti-gp53-FITC to detect gp53 (a glycoprotein expressed on activated basophils). After staining red blood cells are lysed by addition of Lysing Solution. Cells are washed, and analyzed by flow cytometry.

PI3K α = molecular target: T1, PI3K α (Homo sapiens, UniProt P42336); assay: PI3K α in vitro kinase inhibition assay; type: biochemical
T1 construct: purchased Upstate
Experimental: (§1) IC50 values are measured using either a standard TLC assay for lipid kinase activity (described below) or a high-throughput membrane capture assay. Kinase reactions are performed by preparing a reaction mixture containing kinase, inhibitor (2% DMSO final concentration), buffer (25 mM HEPES, pH 7.4, 10 mM MgCl2), and freshly sonicated phosphatidylinositol (100 μg/ml). Reactions are initiated by the addition of ATP containing 10 μCi of γ-32P-ATP to a final concentration 10 or 100 μM and allowed to proceed for 5 minutes at room temperature. For TLC analysis, reactions are then terminated by the addition of 105 μl 1N HCl followed by 160 μl CHCl3:MeOH (1:1). The biphasic mixture is vortexed, briefly centrifuged, and the organic phase is transferred to a new tube using a gel loading pipette tip precoated with CHCl3. This extract is spotted on TLC plates and developed for 3-4 hours in a 65:35 solution of n-propanol:1M acetic acid. The TLC plates are then dried, exposed to a phosphorimager screen (Storm, Amersham), and quantitated.
(§2) Briefly, the assay is a time resolved FRET assay that indirectly measures PIP3 product formed by the activity of a PI3-K. The kinase reaction is performed in a microtiter plate (e.g., a 384 well microtiter plate). The total reaction volume is approximately 20 ul per well. In the first step, each well receives 2 ul of test compound in 20% dimethylsulphoxide resulting in a 2% DMSO final concentration. Next, approximately 14.5 ul of a kinase/PIP2 mixture (diluted in 1× reaction buffer) is added per well for a final concentration of 0.25-0.3 ug/ml kinase and 10 uM PIP2. […] To start the reaction, 3.5 ul of ATP (diluted in 1× reaction buffer) is added per well for a final concentration of 10 uM ATP. The plate is sealed and incubated for 1 hour at room temperature. The reaction is stopped by adding 5 ul of Stop Solution per well and then 5 μl of Detection Mix is added per well. The plate is sealed, incubated for 1 hour at room temperature, and then read on an appropriate plate reader. Data is analyzed and IC50s are generated using GraphPad Prism 5.

PI3K β = molecular target: T2, PI3K β (Homo sapiens, UniProt P42338); assay: PI3K β in vitro kinase inhibition assay; type: biochemical
T2 construct: purchased Upstate
Experimental: as §1, §2

PI3K δ = molecular target: T3, PI3K δ (Homo sapiens, UniProt O00329); assay: PI3K δ in vitro kinase inhibition assay; type: biochemical
T3 construct: purchased Upstate
Experimental: as §1, §2

PI3K γ = molecular target: T4, PI3K γ (Homo sapiens, UniProt P48736); assay: PI3K γ in vitro kinase inhibition assay; type: biochemical
T4 construct: purchased Sigma
Experimental: as §1, §2

[4] = read-out: B cell proliferation EC50

T4 sequence (P48736 whole entry): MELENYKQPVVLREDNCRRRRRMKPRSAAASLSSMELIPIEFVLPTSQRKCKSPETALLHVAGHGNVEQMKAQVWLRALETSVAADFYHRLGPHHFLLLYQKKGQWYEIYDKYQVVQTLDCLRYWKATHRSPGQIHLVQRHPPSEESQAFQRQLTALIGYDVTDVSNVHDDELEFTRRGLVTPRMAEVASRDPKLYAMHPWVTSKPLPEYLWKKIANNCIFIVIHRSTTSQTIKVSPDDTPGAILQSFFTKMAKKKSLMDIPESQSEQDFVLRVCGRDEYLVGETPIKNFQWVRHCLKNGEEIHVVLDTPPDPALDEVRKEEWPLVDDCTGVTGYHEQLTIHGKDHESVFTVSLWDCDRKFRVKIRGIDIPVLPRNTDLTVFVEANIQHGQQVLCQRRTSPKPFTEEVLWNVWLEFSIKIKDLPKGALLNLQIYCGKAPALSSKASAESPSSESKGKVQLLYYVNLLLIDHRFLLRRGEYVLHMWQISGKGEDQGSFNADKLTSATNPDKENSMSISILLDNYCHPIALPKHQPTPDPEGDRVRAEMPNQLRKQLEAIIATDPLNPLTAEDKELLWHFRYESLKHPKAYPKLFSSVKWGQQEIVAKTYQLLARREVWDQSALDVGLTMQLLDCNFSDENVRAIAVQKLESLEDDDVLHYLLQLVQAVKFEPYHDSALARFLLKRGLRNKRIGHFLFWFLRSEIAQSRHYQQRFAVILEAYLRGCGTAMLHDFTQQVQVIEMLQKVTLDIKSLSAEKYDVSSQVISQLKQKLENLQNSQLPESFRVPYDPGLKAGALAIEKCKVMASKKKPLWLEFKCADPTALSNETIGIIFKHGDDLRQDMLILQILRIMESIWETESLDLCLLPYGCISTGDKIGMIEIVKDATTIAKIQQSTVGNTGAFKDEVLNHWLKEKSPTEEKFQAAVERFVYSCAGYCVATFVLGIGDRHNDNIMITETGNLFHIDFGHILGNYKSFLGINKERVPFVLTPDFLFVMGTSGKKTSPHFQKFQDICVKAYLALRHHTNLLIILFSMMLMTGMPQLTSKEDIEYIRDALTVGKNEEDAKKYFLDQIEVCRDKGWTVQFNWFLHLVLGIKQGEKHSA
T2 sequence (P42338 whole entry): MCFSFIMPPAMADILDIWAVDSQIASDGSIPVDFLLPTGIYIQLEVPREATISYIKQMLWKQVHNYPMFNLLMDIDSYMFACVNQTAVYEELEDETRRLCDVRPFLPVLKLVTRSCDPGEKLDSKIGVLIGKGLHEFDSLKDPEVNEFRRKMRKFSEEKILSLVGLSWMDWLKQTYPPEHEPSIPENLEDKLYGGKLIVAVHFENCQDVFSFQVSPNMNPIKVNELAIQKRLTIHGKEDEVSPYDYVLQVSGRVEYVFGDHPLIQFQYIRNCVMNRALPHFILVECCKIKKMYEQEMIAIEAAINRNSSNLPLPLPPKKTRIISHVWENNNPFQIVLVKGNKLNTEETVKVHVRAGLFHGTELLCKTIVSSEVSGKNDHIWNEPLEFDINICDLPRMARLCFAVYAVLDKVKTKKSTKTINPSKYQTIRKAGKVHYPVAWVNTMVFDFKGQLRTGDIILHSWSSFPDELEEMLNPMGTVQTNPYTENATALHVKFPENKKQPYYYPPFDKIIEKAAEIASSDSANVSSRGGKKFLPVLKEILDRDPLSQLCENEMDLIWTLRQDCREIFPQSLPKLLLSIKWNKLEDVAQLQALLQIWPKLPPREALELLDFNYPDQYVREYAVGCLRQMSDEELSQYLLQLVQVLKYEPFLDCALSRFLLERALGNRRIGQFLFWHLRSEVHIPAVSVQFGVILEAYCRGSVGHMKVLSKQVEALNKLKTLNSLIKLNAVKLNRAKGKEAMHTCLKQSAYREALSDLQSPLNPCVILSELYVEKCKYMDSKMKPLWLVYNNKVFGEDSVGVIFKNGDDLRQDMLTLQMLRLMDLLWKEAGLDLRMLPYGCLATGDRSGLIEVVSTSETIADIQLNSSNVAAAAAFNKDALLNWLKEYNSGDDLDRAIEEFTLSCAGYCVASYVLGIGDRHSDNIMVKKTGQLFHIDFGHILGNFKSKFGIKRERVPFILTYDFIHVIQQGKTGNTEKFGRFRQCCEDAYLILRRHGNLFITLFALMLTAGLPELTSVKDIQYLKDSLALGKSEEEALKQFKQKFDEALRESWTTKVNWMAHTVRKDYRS
T2 sequence (P27986 whole entry partner): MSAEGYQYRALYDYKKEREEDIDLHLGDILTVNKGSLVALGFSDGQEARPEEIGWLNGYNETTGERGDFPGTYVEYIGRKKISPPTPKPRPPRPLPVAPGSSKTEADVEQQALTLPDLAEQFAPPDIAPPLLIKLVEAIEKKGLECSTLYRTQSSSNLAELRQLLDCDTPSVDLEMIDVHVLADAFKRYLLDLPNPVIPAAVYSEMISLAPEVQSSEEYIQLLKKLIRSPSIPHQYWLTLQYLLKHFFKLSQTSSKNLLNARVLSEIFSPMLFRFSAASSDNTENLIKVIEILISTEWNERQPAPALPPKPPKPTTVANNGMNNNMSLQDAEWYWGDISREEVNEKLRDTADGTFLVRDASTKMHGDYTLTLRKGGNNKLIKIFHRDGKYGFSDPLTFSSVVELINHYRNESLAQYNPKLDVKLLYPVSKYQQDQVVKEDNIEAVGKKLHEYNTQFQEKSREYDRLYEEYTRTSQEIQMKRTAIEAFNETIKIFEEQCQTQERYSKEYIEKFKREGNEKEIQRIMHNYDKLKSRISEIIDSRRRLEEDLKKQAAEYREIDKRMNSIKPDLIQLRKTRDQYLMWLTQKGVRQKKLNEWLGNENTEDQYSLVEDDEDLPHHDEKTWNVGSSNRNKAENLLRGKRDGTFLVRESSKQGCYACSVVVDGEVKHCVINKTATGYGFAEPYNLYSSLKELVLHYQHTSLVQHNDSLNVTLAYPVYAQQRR
T3 sequence (O00329 whole entry): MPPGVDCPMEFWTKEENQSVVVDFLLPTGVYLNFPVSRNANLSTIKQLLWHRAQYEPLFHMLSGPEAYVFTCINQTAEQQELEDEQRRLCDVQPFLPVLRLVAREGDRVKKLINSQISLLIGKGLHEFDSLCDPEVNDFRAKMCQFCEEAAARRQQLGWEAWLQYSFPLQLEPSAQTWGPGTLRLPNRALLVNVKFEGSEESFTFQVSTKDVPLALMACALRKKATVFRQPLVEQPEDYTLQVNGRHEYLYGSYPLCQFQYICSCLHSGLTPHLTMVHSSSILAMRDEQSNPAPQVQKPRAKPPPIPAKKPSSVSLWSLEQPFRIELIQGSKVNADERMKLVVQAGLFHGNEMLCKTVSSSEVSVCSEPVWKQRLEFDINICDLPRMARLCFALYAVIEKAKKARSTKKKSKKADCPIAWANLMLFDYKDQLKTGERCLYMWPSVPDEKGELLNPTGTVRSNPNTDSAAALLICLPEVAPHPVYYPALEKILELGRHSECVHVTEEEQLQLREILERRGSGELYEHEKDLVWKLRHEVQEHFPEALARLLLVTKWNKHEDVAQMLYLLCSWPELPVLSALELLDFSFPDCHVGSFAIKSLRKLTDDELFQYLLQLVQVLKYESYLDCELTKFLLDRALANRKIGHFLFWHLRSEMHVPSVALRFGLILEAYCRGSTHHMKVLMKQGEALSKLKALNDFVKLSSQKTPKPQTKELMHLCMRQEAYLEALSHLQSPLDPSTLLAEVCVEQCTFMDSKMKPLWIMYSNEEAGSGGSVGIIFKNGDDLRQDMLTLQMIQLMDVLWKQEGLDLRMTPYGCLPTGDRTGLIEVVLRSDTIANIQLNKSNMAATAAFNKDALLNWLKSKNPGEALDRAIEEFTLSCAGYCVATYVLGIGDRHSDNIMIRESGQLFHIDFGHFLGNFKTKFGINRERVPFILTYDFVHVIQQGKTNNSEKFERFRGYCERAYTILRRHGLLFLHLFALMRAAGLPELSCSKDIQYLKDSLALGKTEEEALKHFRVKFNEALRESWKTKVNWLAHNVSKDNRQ
T3 sequence (P27986 whole entry partner): as the sequence (P27986 whole entry partner) above
T1 sequence (P42336 whole entry): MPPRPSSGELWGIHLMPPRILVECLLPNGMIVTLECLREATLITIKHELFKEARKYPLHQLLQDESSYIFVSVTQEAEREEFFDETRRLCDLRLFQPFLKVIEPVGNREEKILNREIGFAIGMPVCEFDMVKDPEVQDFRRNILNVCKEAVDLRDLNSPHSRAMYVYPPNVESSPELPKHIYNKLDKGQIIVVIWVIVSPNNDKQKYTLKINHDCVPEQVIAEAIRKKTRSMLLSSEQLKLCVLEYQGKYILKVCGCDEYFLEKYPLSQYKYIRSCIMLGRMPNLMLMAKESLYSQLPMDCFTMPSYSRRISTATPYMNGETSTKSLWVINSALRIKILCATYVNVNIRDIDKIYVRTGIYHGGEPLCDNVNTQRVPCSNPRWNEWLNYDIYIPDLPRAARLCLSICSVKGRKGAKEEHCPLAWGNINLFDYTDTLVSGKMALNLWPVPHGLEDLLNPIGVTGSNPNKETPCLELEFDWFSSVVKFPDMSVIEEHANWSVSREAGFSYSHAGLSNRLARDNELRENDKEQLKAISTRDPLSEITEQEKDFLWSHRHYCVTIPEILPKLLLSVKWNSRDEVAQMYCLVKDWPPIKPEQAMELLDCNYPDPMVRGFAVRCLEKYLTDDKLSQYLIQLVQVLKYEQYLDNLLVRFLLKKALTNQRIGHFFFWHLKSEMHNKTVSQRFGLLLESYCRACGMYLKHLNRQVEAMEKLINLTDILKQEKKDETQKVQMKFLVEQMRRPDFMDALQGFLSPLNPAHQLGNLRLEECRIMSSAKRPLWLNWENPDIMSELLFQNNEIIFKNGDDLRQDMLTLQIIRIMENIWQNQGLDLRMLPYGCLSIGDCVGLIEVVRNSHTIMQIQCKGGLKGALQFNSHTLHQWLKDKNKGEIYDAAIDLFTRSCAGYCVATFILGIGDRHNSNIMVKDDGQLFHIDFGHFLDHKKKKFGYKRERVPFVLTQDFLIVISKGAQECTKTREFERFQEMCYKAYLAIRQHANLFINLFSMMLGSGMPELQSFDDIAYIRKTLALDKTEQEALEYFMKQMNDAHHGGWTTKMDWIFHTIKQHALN
T1 sequence (P27986 whole entry partner): as the sequence (P27986 whole entry partner) above

SMILES	IC50 (PI3K α)	IC50 (PI3K β)	IC50 (PI3K δ)	IC50 (PI3K γ)	EC50 (Balb/c splenic B cells; [4])	other results
CC(=O)Nc1nc2ccc(-c3nn(Cc4cc5cccc(C)c5c(=O)n4-c4ccccc4C)c4ncnc(N)c34)cc2s1 [#53]	–	–	–	–	–	mean ankle diameter increase over time ([1]; once daily dosage, FIG. 8): significant reduction; mean ankle diameter increase over time ([1]; twice daily dosage, FIG. 9): significant reduction; average paw volume increase ([2]; FIG. 10): dose dependent reduction; toxicity or other adverse reaction as measured by weight loss ([2]; FIG. 11, average weight over time): does not exhibit toxicity or other adverse reaction; ankle histopathology, all categories ([3]; 60 mg/kg, FIG. 4): statistically significant reduction in all categories; serum anti-type II collagen levels ([3]; 10, 20, and 60 mg/kg dosage levels, FIG. 6): significant reduction; arthritis induced ankle diameter increase over time ([3]; 10, 30, and 60 mg/kg at 12 hour intervals, oral, relative to vehicle or methotrexate control): significant reduction; knee histopathology ([3]; FIG. 5): dose dependent reduction; ankle histopathology (inflammation, pannus, cartilage damage, bone resorption) ([3]; oral, 12 hour intervals, FIG. 4): significant reduction in one or more categories
CC(=O)Nc1nc2ccc(-c3nn(Cc4cc5cccc(C)c5c(=O)n4-c4ccccc4C)c4ncnc(N)c34)cc2s1 [Compound 53]	–	–	–	–	–	EC50 (Balb/c splenic B cells; read-out: B cell proliferation EC50 (nM)): < 100 nM; inhibition of allergen induced activation of basophilic granulocytes (basophilic granulocytes): sub micromolar range
CCc1ccccc1-n1c(Cn2nc(Br)c3c(N)ncnc32)nc2scc(C)c2c1=O [Compound 283]	> 10000 nM	< 10000 nM	< 100 nM	< 100 nM	< 100 nM	–
Cc1csc2nc(Cn3nc(Br)c4c(N)ncnc43)n(-c3ccccc3Cl)c(=O)c12 [Compound 286]	> 10000 nM	< 10000 nM	< 100 nM	< 1000 nM	< 100 nM	–
CCc1ccccc1-n1c(Cn2nc(-c3cccc(O)c3)c3c(N)ncnc32)nc2scc(C)c2c1=O [Compound 290]	> 10000 nM	< 10000 nM	< 100 nM	< 100 nM	< 100 nM	–
Cc1cccnc1-n1c(Cn2nc(-c3cc(O)cc(F)c3)c3c(N)ncnc32)nc2scc(C)c2c1=O [Compound 297]	> 10000 nM	< 10000 nM	< 100 nM	> 10000 nM	< 100 nM	–

Further lines, with some results ahead:

IC50 (PI3K α)	IC50 (PI3K β)	IC50 (PI3K δ)	IC50 (PI3K γ)	SMILES	EC50 (Balb/c splenic B cells; [4])	other results
> 10000 nM	< 10000 nM	< 100 nM	< 100 nM	Cc1csc2nc(Cn3nc(I)c4c(N)ncnc43)n(-c3ccccc3C(C)C)c(=O)c12 [Compound 284]	< 100 nM	–
> 10000 nM	< 1000 nM	< 100 nM	< 100 nM	CCc1ccccc1-n1c(Cn2nc(-c3cc(O)cc(F)c3)c3c(N)ncnc32)nc2scc(C)c2c1=O [Compound 292]	< 100 nM	–
< 10000 nM	< 1000 nM	< 100 nM	> 10000 nM	Cc1csc2nc(Cn3nc(-c4cc(O)cc(F)c4)c4c(N)ncnc43)n(-c3ccccc3Cl)c(=O)c12 [Compound 296]	< 100 nM	–
